Assay results as given in US7125891B2, “Tripeptidyl peptidase inhibitors” (Janssen Pharmaceutica N.V., priority 2000, dated 2006).
Where a name gives a salt, the structure may show the parent alone.

In the case of `CCc1cn(C)c(C2Cc3ccccc3N2C(C)=O)n1` (stereo not shown), the melting point is reported as 105 to 106 °C.
`CCCc1cnc(C2Cc3ccccc3N2C(=O)C(C)N(C)C(=O)OC(C)C)[nH]1` (stereo not shown) showed a melting point of 77 to 80 °C.
Work on `CCc1cnc(C2Cc3ccccc3N2C(=O)Nc2ccccc2[N+](=O)[O-])[nH]1` (stereo not shown) yielded a melting point of 208 to 209 °C.
`CCCc1cnc(C2Cc3ccccc3N2C(C)=O)[nH]1` (stereo not shown) showed a melting point of 174 to 175 °C.
In the case of `CCCc1nc(C2Cc3ccccc3N2C(C)=O)no1` (stereo not shown), the melting point is reported as 93 to 94 °C.
Work on `CCCc1cnc(C2Cc3ccccc3N2C(=O)C(N)CC)[nH]1` (stereo not drawn) (as salt: HCl) (hydrate or solvate) [Compound 15, [2S-[1(R*),2R*]]-α-ethyl-2,3-dihydro-β-oxo-2-(4-propyl-1H-imidazol-2-yl)-1H-indole-1-ethanamine dihydrochloride dihydrate] yielded a melting point of 132 to 140 °C.
Work on `CCc1cnc(C2Cc3ccccc3N2C(=O)Nc2ccccc2N)[nH]1` (stereo not shown) (as salt: trifluoroacetate) yielded a melting point of 106 to 108 °C.
For `CCc1cnc(C2Cc3ccccc3N2C(=O)c2ccccc2C(=O)O)[nH]1` (stereo not shown) (as salt: trifluoroacetate), the melting point was 98 to 103 °C.
`NCC(=O)N1c2ccccc2CC1c1nc2cc(C(=O)O)ccc2[nH]1` (stereo not shown) (as salt: trifluoroacetate) (hydrate or solvate) [Compound 62, 2-[1-(aminoacetyl)-2,3-dihydro-1H-indol-2-yl]-1H-benzimidazole-5-carboxylic acid monohydrate trifluoroacetate (1:2)] showed a melting point of 208 to 211 °C.
`CCCc1nc(C2Cc3ccccc3N2C(=O)CN)no1` (stereo not drawn) (as salt: trifluoroacetate) [Compound 90, 2,3-dihydro-β-oxo-2-(5-propyl-1,2,4-oxadiazol-3-yl)-1H-indole-1-ethanamine trifluoroacetate (1:1)] gave a melting point of 160 to 162 °C.
